Measurements from paper PMC11975549, “Development of Potent Type V MAPK Inhibitors: Design, Synthesis, and Biological Evaluation of Benzothiazole Derivatives Targeting p38α MAPK in Breast Cancer Cells” (Archiv Der Pharmazie, 2025).

Assays:
[1] = test system: MCF7 cells; assay: MTT antiproliferative assay, MCF7; assay type: cell-based, human; settings: for IC50: MTT, 24 h incubation; for Selectivity MCF7: Selectivity index = L929 IC50 / MCF7 IC50 (24 h)
Experimental: (§1) Cell culture experiments were performed to assess the antiproliferative efficacy of the synthesized benzothiazole compounds on the MCF7 and MDA‐MB‐231 cell lines. The anticancer activity of the compounds were compared with the L929 healthy cell line as a control. Doxorubicin and cisplatin, the anticancer agents, were employed as positive controls.
(§2) Human epithelial breast adenocarcinoma (MDA‐MB‐231) (ATCC® HTB‐26™), human epithelial breast adenocarcinoma (MCF7) (ATCC® HTB‐22™), and healthy mouse fibroblast (L929) (ATCC® CRL‐10317™) cells were obtained commercially from ATCC.
(§3) MDA‐MB‐231, MCF7, and L929 cells were seeded in 25 cm² flasks. DMEM medium containing 10% FBS, 1% Penicillin‐Streptomycin, L‐Glutamine, and NaHCO₃ was used as the cell culture medium. The cells were incubated and propagated at 37°C in an environment containing 5% CO₂ and 95% humidity. When the cells reached 80%–90% confluency, they were passaged to different media. During passaging, DMEM was first withdrawn, and the cells were washed with PBS to remove FBS from the medium. Then, Trypsin‐EDTA solution was added to the flask to detach the cells, and the flask was kept in a CO₂ incubator for approximately 1 min. To stop the activity of Trypsin‐EDTA medium containing FBS was added to the flask. The cells were collected into a Falcon tube and centrifuged at 800 rpm for 5 min at room temperature. The supernatant was discarded, and the cell pellet was resuspended in the medium and seeded on cell culture plates according to the experimental protocol.
(§4) A total of 2 mg of each compound was dissolved in an appropriate amount of dimethyl sulfoxide (DMSO) to prepare 10 mM stock solutions. These stock solutions were then diluted to create 100 μM intermediate stocks and stored at −80°C. Commercially purchased cisplatin and doxorubicin HCl (Sigma, St. Louis, MO) were dissolved in DMSO following the manufacturer's protocol to create 20 mM stock solutions. These standard drug molecules were diluted from the stock solution, divided into 100 μM aliquots, and stored at –80°C until use.
(§5) MTT analysis was performed to evaluate the in vitro cytotoxicity of the synthesized compounds against different cancer cell lines. Cells used in the cytotoxicity experiments were cultured in DMEM medium supplemented with 10% FBS. Cells suspended in the medium (2 × 10⁴ cells/mL) were seeded into 96‐well culture plates and incubated at 37°C in a 5% CO₂ incubator. After 12 h, compounds were added at different doses (2 µL) to cells (2 × 10⁴) in the 96‐well plates and incubated at 37°C for 24 h.
(§6) The incubated cells were then treated with 20 µL of MTT solution and incubated at 37°C for 4 h. The supernatant was carefully removed from each well, and 100 µL of DMSO was added to each well to dissolve the formazan crystals formed by the cellular reduction of MTT. The absorbance was measured at 570 nm using an ELISA reader. […] At the end of the experiment, the device calculated the IC50 value for each well, and the average values were recorded. Each experiment was performed in at least three replicates.

[2] = test system: MDA‐MB‐231 cells; assay: MTT antiproliferative assay, MDA-MB-231; assay type: cell-based, human; settings: for IC50: MTT, 24 h incubation; for Selectivity MDA‐MB‐231: Selectivity index = L929 IC50 / MDA‐MB‐231 IC50 (24 h)
Experimental: as §1, §2, §3, §4, §5, §6

[3] = test system: L929 cells; assay: MTT cytotoxicity assay, L929 healthy cells; assay type: cell-based; settings: healthy mouse fibroblast
Experimental: as §1, §2, §3, §4, §5, §6

[4] = test system: p38 MAPKα; assay: p38 MAPK alpha ELISA, total level in treated MCF7 cells normalised to total protein (BCA); assay type: cell-based, human; settings: MCF7 cells exposed to compound
From the text: To account for variations in protein quantities among the cells. The total protein concentrations in cells subjected to the drugs were quantified. The p38 MAPKα levels were adjusted by dividing by the protein levels, yielding results represented as ng/μg protein (Table 3).
A bicinchoninic acid (BCA) protein assay kit (catalog no. 23227) was obtained from Thermo‐Fisher Scientific (IL, USA) and used to detect total protein by the BCA assay. In this assay, the reaction between BCA, Cu²⁺ ions, and Cu⁺ ions form a purple complex in alkaline conditions. The absorbance of this complex was measured at 562 nm, and the results were expressed in mg/mL.
The p38 MAPK alpha ELISA Kit (ab221012; Abcam, Cambridge, MA) was used to measure the levels of […] in cell lysates according to the manufacturer's instructions. The SimpleStep Enzyme‐Linked Immunosorbent Assay (ELISA) kit was designed to assess total p38 MAPKα protein semi‐quantitatively. The SimpleStep ELISA uses a reporter‐conjugated detection antibody, and an affinity‐tag labeled capture antibody to immunocapture the sample analyte in solution. An anti‐tag antibody coating the well immobilizes the entire complex (capture antibody, analyte, and detection antibody).
Samples or controls were added to the wells, followed by the Antibody Cocktail to complete the test. After incubation, the wells were washed to remove unbound material. […] The levels of MAPK were normalized to total protein content.

Row | SMILES | IC50 [1] [µM] | Selectivity MCF7 [1] | IC50 [2] [µM] | Selectivity MDA‐MB‐231 [2] | IC50 ([3]; 24 h incubation) [µM] | IC50 ([1]; Homo sapiens, MCF7) [µM] | IC50 ([2]; Homo sapiens, MDA-MB-231) [µM] | IC50 ([3]; L929, 24 h incubation) [µM] | Total p38α MAPK levels [4] [ng/μg protein]
1 | N.N.[Cl][Pt][Cl] [Cisplatin, reference compound] | 7.03 ± 0.04 | 5.118 | 30.1 ± 1.39 | 1.195 | 36 ± 2.01 |  |  |  | 
2 | COc1ccc(C(=O)Nc2nc3ccccc3s2)cc1 [Compound 1, N‐(Benzo[d]thiazol‐2‐yl)‐4‐methoxybenzamide] |  | 2.227 |  | 1.549 |  | 11 ± 0.27 | 15.8 ± 0.75 | 24.5 ± 0.56 | 7.367 ± 1.291
3 | O=C(Nc1nc2ccccc2s1)c1ccc(F)cc1 [Compound 2, N‐(Benzo[d]thiazol‐2‐yl)‐4‐fluorobenzamide] |  | 1.884 |  | 1.239 |  | 11.2 ± 0.49 | 17 ± 0.67 | 21.02 ± 0.21 | 3.879 ± 0.868
4 | O=C(Nc1nc2ccccc2s1)c1cccs1 [Compound 3, N‐(Benzo[d]thiazol‐2‐yl) thiophene‐2‐carboxamide] |  | 2.209 |  | 2.345 |  | 16 ± 0.46 | 15 ± 0.57 | 35.2 ± 0.95 | 0.43 ± 0.005
5 | O=C(Nc1nc2ccccc2s1)c1ccco1 [Compound 4, N‐(Benzo[d]thiazol‐2‐yl) furan‐2‐carboxamide] |  | 2.349 |  | 1.305 |  | 11.08 ± 0.08 | 19.9 ± 0.36 | 26.03 ± 0.13 | 8.529 ± 0.9
6 | O=C(Nc1nc2ccccc2s1)c1ccc(Br)cc1 [Compound 5, N‐(Benzo[d]thiazol‐2‐yl)‐4‐bromobenzamide] |  | 2.399 |  | 2.033 |  | 12.9 ± 0.37 | 15.3 ± 0.32 | 31 ± 0.66 | 
7 | O=C(Nc1nc2ccccc2s1)c1ccc(C(F)(F)F)cc1 [Compound 6, N‐(Benzo[d]thiazol‐2‐yl)‐4‐(trifluoromethyl) benzamide] | 13.5 ± 0.37 | 1.772 | 10.9 ± 0.28 | 2.197 | 23.9 ± 0.32 |  |  |  | 
8 | O=C(Nc1nc2ccccc2s1)c1ccccc1 [Compound 7, N‐(Benzo[d]thiazol‐2‐yl) benzamide] |  | 2.171 |  | 2.284 |  | 12.4 ± 0.97 | 11.8 ± 0.57 | 26.9 ± 0.97 | 
9 | Cc1ccc(C(=O)Nc2nc3ccccc3s2)cc1 [Compound 8, N‐(Benzo[d]thiazol‐2‐yl)‐4‐methylbenzamide] |  | 1.373 |  | 1.238 |  | 4.69 ± 0.05 | 5.2 ± 0.19 | 6.44 ± 0.05 | 9.541 ± 0.099
10 | O=C(Nc1nc2ccccc2s1)c1ccc(Cl)cc1 [Compound 9, N‐(Benzo[d]thiazol‐2‐yl)‐4‐chlorobenzamide] |  | 1.842 |  | 1.068 |  | 3.49 ± 0.32 | 6.02 ± 0.18 | 6.43 ± 0.05 | 0.166 ± 0.015
11 | O=C(NCc1nc2ccccc2s1)c1ccccc1 [Compound 10, N‐(Benzo[d]thiazol‐2‐ylmethyl) benzamide] |  | 7.238 |  | 3.019 |  | 5.64 ± 0.34 | 13.5 ± 0.54 | 40.82 ± 0.12 | 0.535 ± 0.079
12 | O=C(NCc1nc2ccccc2s1)c1ccc(Cl)cc1 [Compound 11, N‐(Benzo[d]thiazol‐2‐ylmethyl)‐4‐chlorobenzamide] |  | 2.304 |  | 3.583 |  | 15.6 ± 0.65 | 10 ± 0.36 | 35.87 ± 0.23 | 
13 | O=C(NCc1nc2ccccc2s1)c1ccc(F)cc1 [Compound 12, N‐(Benzo[d]thiazol‐2‐ylmethyl)‐4‐fluorobenzamide] |  | 2.038 |  | 2.869 |  | 21.1 ± 0.46 | 15 ± 0.26 | 43 ± 0.56 | 
14 | O=C(NCc1nc2ccccc2s1)c1ccc(C(F)(F)F)cc1 [Compound 13, N‐(Benzo[d]thiazol‐2‐ylmethyl)‐4‐(trifluoromethyl) benzamide] | 12.9 ± 0.86 | 2.534 | 10 ± 0.43 | 3.273 | 32.8 ± 0.43 |  |  |  | 
15 | O=C(NCc1nc2ccccc2s1)c1cccs1 [Compound 14, N‐(Benzo[d]thiazol‐2‐ylmethyl) thiophene‐2‐carboxamide] |  | 2.096 |  | 1.391 |  | 10.6 ± 0.16 | 16 ± 0.68 | 22.2 ± 0.68 | 0.199 ± 0.011
16 | O=C(NCc1nc2ccccc2s1)c1ccc(Br)cc1 [Compound 16, N‐(Benzo[d]thiazol‐2‐ylmethyl)‐4‐bromobenzamide] |  | 2.536 |  | 1.766 |  | 14.1 ± 0.95 | 20.25 ± 0.19 | 35.8 ± 0.46 | 
17 | COc1ccc(OC)c(CC(=O)Nc2nc3ccccc3s2)c1 [Compound 20, N‐(Benzo[d]thiazol‐2‐yl)‐2‐(2,5‐dimethoxyphenyl) acetamide] | 14.7 ± 0.15 | 5.977 | 16.07 ± 0.12 | 5.464 | 87.8 ± 1.29 |  |  |  | 
18 | COc1ccc(CC(=O)Nc2nc3ccccc3s2)cc1 [Compound 24, N‐(Benzo[d]thiazol‐2‐yl)‐2‐(4‐methoxyphenyl) acetamide] | 12.7 ± 0.18 | 6.440 | 12.9 ± 0.19 | 6.306 | 81.5 ± 1.07 |  |  |  | 
19 | O=C(Cc1cccs1)Nc1nc2ccccc2s1 [Compound 25, N‐(Benzo[d]thiazol‐2‐yl)‐2‐(thiophen‐2‐yl) acetamide] | 13.21 ± 0.03 | 10.189 | 14.4 ± 0.18 | 9.360 | 135 ± 1.83 |  |  |  | 
20 | COc1cccc(CC(=O)NCc2nc3ccccc3s2)c1 [Compound 26, N‐(Benzo[d]thiazol‐2‐ylmethyl)‐2‐(3‐methoxyphenyl) acetamide] | 13.5 ± 0.35 | 2.047 | 15.8 ± 0.52 | 1.753 | 27.7 ± 0.78 |  |  |  | 
21 | O=C(Cc1ccc(Cl)cc1)NCc1nc2ccccc2s1 [Compound 27, N‐(Benzo[d]thiazol‐2‐ylmethyl)‐2‐(4‐chlorophenyl) acetamide] | 12.3 ± 0.96 | 2.666 | 14.7 ± 0.63 | 2.243 | 32.9 ± 0.35 |  |  |  | 
22 | COc1cccc2c1C(=O)c1c(O)c3c(c(O)c1C2=O)C[C@@](O)(C(=O)CO)C[C@@H]3O[C@H]1C[C@H](N)[C@H](O)[C@H](C)O1 [Doxorubicin, reference compound] |  | 4.131 |  | 2.584 |  | 5.8 ± 0.15 | 9.27 ± 0.21 | 24 ± 1.07 | 
